Assay results from the supplement of paper PMC10331698.
± gives the standard deviation of the averaged measurements.

Assays:
Experiment in all cases: level (log10 ratio to DMSO vehicle control); higher = higher biomarker level / cell amount than vehicle control
Settings in all cases: in DMSO
Heptafluorobutyl iodide = compound: FC(F)(F)C(F)(F)C(F)(F)CI [Heptafluorobutyl iodide]
Protocol: (§1)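 BioMAP Diversity Plus panel of 12 human primary cell co-culture systems (3C, 4H, LPS, SAg, BT, BF4T, BE3C, CASM3C, HDF3CGF, KF3CT, MyoF, Mphg). Compounds were added 1 h before stimulation and left for 24 h (MyoF 48 h; BT 72 h for soluble read-outs or 6 d for IgG). Biomarkers were read by ELISA, cytotoxicity by SRB, PBMC viability and proliferation by Alamar Blue. Each well value was divided by the mean of 8 DMSO control wells on the same plate and log10 transformed; duplicate blinded samples were tested at 4 concentrations.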

[1] = compound: FC(F)(F)C(F)(F)C(F)(F)C(F)(F)C(F)(F)C(F)(F)CC1CO1 [3-(Perfluorohexyl)-1,2-epoxypropane]
Protocol: as §1

Octafluoroadipamide = compound: NC(=O)C(F)(F)C(F)(F)C(F)(F)C(F)(F)C(N)=O [Octafluoroadipamide]
Protocol: as §1

[2] = compound: O=S(=O)(O)CCC(F)(F)C(F)(F)C(F)(F)C(F)(F)C(F)(F)C(F)(F)F [6:2 Fluorotelomer sulfonic acid]
Protocol: as §1

[3] = compound: FC(F)(F)C(F)(F)C(F)(F)C(F)(F)C(F)(F)C(F)(F)C(F)(F)I [1-Iodopentadecafluoroheptane]
Protocol: as §1

[4] = compound: O=S(=O)(Cl)C(F)(F)C(F)(F)C(F)(F)C(F)(F)C(F)(F)C(F)(F)C(F)(F)C(F)(F)F [Perfluoro-1-octanesulfonyl chloride]
Protocol: as §1

[5] = compound: O=S(=O)(F)C(F)(F)C(F)(F)C(F)(F)C(F)(F)C(F)(F)C(F)(F)C(F)(F)C(F)(F)F [Perfluorooctanesulfonyl fluoride]
Protocol: as §1

Test System | level (log10) (Heptafluorobutyl iodide; 6700 nM) | level (log10) (Heptafluorobutyl iodide; 20000 nM) | level (log10) (Heptafluorobutyl iodide; 60000 nM) | level (log10) ([1]; 6700 nM) | level (log10) ([1]; 20000 nM) | level (log10) ([1]; 60000 nM) | level (log10) (Octafluoroadipamide; 6700 nM) | level (log10) (Octafluoroadipamide; 20000 nM) | level (log10) (Octafluoroadipamide; 60000 nM) | level (log10) ([2]; 6700 nM) | level (log10) ([2]; 20000 nM) | level (log10) ([2]; 60000 nM) | level (log10) ([3]; 6700 nM) | level (log10) ([3]; 20000 nM) | level (log10) ([4]; 6700 nM) | level (log10) ([4]; 20000 nM) | level (log10) ([4]; 60000 nM) | level (log10) ([5]; 6700 nM) | level (log10) ([5]; 20000 nM) | level (log10) ([5]; 60000 nM)
CASM3C:CCL2/MCP-1 | -0.0055 ± 0.0021 | -0.021 ± 0.011 | 0.018 ± 0.045 | 0.0035 ± 0.022 | 0 ± 0.031 | 0.034 ± 0.028 | -0.0095 ± 0.0078 | -0.0085 ± 0.0078 | 0.017 ± 0.02 | -0.0125 ± 0.011 | -0.01 | 0.0225 ± 0.032 | -0.01 ± 0.0042 | 0.005 ± 0.018 | -0.0025 ± 0.0078 | -0.0115 ± 0.0092 | 0.031 ± 0.044 | -0.004 ± 0.014 | -0.0035 ± 0.005 | 0.0055 ± 0.03
HDF3CGF:TIMP-2 | -0.033 ± 0.0042 | -0.044 ± 0.0071 | -0.013 ± 0.051 | 0.0235 ± 0.012 | 0.0065 ± 0.00071 | -0.006 ± 0.02 | -0.0695 ± 0.13 | -0.035 ± 0.061 | -0.002 ± 0.013 | -0.021 ± 0.0099 | -0.0205 ± 0.032 | 0.0245 ± 0.029 | 0.015 ± 0.0057 | 0.0035 ± 0.0035 | -0.002 ± 0.048 | -0.0185 ± 0.013 | -0.0205 ± 0.0021 | -0.0005 ± 0.011 | 0.0185 ± 0.012 | -0.0085 ± 0.042
BE3C:MMP-1 | 0 ± 0.0014 | -0.0085 ± 0.005 | 0.02 ± 0.0099 | 0.022 ± 0.075 | 0.0255 ± 0.061 | 0.0655 ± 0.03 | -0.01 ± 0.0028 | -0.023 ± 0.037 | 0.0305 ± 0.074 | -0.013 ± 0.017 | -0.0105 ± 0.018 | 0.078 ± 0.054 | -0.0205 ± 0.0078 | -0.011 | 0.075 ± 0.03 | 0.27 ± 0.012 | -0.178 ± 0.047 | -0.0045 ± 0.00071 | -0.001 ± 0.014 | -0.0005 ± 0.013
lMphg:CD106/VCAM-1 | -0.0115 ± 0.005 | -0.022 ± 0.0085 | -0.0175 ± 0.016 | 0.0025 ± 0.012 | 0.005 ± 0.013 | -0.0015 ± 0.018 | 0.014 ± 0.013 | 0.019 ± 0.0085 | 0.0125 ± 0.0021 | -0.007 ± 0.011 | -0.0125 ± 0.0092 | -0.022 ± 0.0071 | -0.0025 ± 0.0064 | -0.007 ± 0.017 | 0.008 ± 0.0057 | 0.0135 ± 0.0078 | 0.0255 ± 0.00071 | 0.009 ± 0.017 | 0.0205 ± 0.012 | -0.0125 ± 0.0092
lMphg:IL-1alpha | 0.029 ± 0.027 | 0.0335 ± 0.03 | 0.0305 ± 0.019 | -0.0115 ± 0.046 | -0.013 ± 0.021 | -0.0015 ± 0.011 | -0.0135 ± 0.016 | -0.044 ± 0.016 | -0.014 ± 0.065 | 0.0395 ± 0.05 | 0.0235 ± 0.035 | 0.0215 ± 0.039 | 0.03 ± 0.045 | 0.014 ± 0.0085 | -0.0225 ± 0.033 | -0.005 ± 0.042 | 0.021 ± 0.088 | 0.01 ± 0.013 | -0.0025 ± 0.005 | 0.0185 ± 0.019
4H:CD87/uPAR | 0.0585 ± 0.04 | 0.0055 ± 0.0035 | -0.024 ± 0.025 | 0.0645 ± 0.044 | 0.0775 ± 0.018 | 0.107 ± 0.022 | -0.036 ± 0.045 | -0.031 ± 0.023 | -0.065 ± 0.0057 | -0.0005 ± 0.029 | 0.001 ± 0.031 | -0.002 ± 0.04 | -0.013 ± 0.023 | 0.0035 ± 0.012 | -0.0165 ± 0.054 | -0.023 ± 0.048 | -0.117 ± 0.053 | 0.013 ± 0.028 | 0.008 ± 0.033 | 0.001 ± 0.0042
MyoF:bFGF | 0.0115 ± 0.019 | 0.01 ± 0.0028 | 0.0115 ± 0.005 | 0.02 ± 0.02 | 0.02 ± 0.018 | 0.014 ± 0.0057 | -0.0115 ± 0.015 | -0.014 ± 0.011 | 0.0135 ± 0.0078 | -0.0065 ± 0.0078 | 0.019 ± 0.013 | 0.0235 ± 0.044 | 0.0165 ± 0.016 | -0.0075 ± 0.015 | -0.007 ± 0.014 | -0.039 ± 0.0014 | -0.029 ± 0.034 | 0 ± 0.0014 | -0.0085 ± 0.00071 | 0.0095 ± 0.018
